Assay results taken from US9981928B2, “Aryl sulfide derivatives and aryl sulfoxide derivatives as acaricides and insecticides” (BAYER CROPSCIENCE AKTIENGESELLSCHAFT, priority 2013, dated 2018).
Like-named read-outs stand apart in the source and are kept apart here.

Columns and labels:
[1] = tested on: greenhouse red spider mite (Tetranychus urticae); experiment: Tetranychus urticae spray test, OP-resistant (TETRUR), bean leaf disks; assay type: in vivo; conditions: bean leaf disks, after 6 days; for pest or weed control at 500 g/ha: Tetranychus urticae, foliar, 144 h, read-out: efficacy in %
How it was run: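 Bean leaf disks carrying all stages of OP-resistant Tetranychus urticae sprayed with compound in acetone/dimethylformamide diluted in emulsifier water. Kill assessed after 6 days as % efficacy, 100% meaning all mites dead.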

[2] = tested on: southern root-knot nematode (Meloidogyne incognita); experiment: Meloidogyne incognita test (MELGIN); assay type: in vivo; conditions: lettuce in sand; application rate 20 ppm; after 14 days
Protocol: Meloidogvne incognita test (MELGIN)
Solvent: 125.0 parts by weight of acetone
To produce a suitable preparation of active compound, 1 part by weight of active compound is mixed with the stated amount of solvent and the concentrate is diluted with water to the desired concentration.
Vessels are filled with sand, active compound solution, an egg/larvae suspension of the southern root-knot nematode (Meloidogyne incognita) and lettuce seeds. The lettuce seeds germinate and the plants develop. The galls develop on the roots.
After 14 days, the nematicidal efficacy in % is determined by the formation of galls. 100% means that no galls were found; 0% means that the number of galls on the treated plants corresponds to the untreated control.

[3] = log P determination by HPLC on reversed-phase columns (C 18), analogously to OECD Guideline 117; assay type: physicochemical; conditions: for chromatographic logP: reversed-phase C18 HPLC column; for logP (HCOOH): LC-MS in the acidic range, pH 2.7, 0.1% aqueous formic acid / acetonitrile; for logP (HCOOH) / logP (neutral): HPLC reversed-phase C 18; for logP (neutral): LC-MS in the neutral range, pH 7.8, 0.001 molar aqueous ammonium hydrogencarbonate / acetonitrile
How it was run: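 Reversed-phase C18 HPLC per OECD 117 with LC-MS detection and a linear 10→95% acetonitrile gradient. Acidic log P run at pH 2.7 with 0.1% formic acid in both eluents. Neutral log P run at pH 7.8 with 0.001 M aqueous ammonium hydrogencarbonate.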

[4] = tested on: cattle ticks (Boophilus microplus); experiment: Boophilus microplus injection test (BOOPMI inj); assay type: in vivo; conditions: injection into the abdomen; application rate 20 μg/animal; assessed after 7 days
Protocol: Boophilus microplus—Injection Test (BOOPMI inj)
Solvent: dimethyl sulfoxide
To produce a suitable preparation of active compound, 10 mg of active compound are mixed with 0.5 ml of solvent and the concentrate is diluted with solvent to the desired concentration.
1 μl of the active compound solution is injected into the abdomen of 5 engorged adult female cattle ticks (Boophilus microplus). The animals are transferred into dishes and kept in a climate-controlled room.
Efficacy is assessed after 7 days by laying of fertile eggs. Eggs which are not visibly fertile are stored in a climate-controlled cabinet until the larvae hatch after about 42 days. An efficacy of 100% means that none of the ticks has laid any fertile eggs; 0% means that all the eggs are fertile.

[5] = acidic range, pH 2.7, 0.1% aqueous formic acid and acetonitrile, read-out: log P[a] / log P(HCOOH)
[6] = neutral range, pH 7.8, 0.001 molar aqueous ammonium hydrogencarbonate and acetonitrile, read-out: log P[b] / log P(neutral)

| chromatographic logP [3, 5] | chromatographic logP [3, 6] | SMILES | pest or weed control at 500 g/ha ([1]; application rate 500 g/ha) | nematicidal efficacy in % (formation of galls) [2] | efficacy (laying of fertile eggs) [4] | efficacy in % ([1]; application rate 500 g/ha) | logP (HCOOH) [3] | logP (neutral) [3] | efficacy in % ([1]; application rate 100 g/ha) |
| --- | --- | --- | --- | --- | --- | --- | --- | --- | --- |
| 2.7 | 2.64 | Cc1cc(F)c(N2C(=O)CSC2=NCC(F)(F)F)cc1[S+]([O-])CC(F)(F)F (centres unmarked) [Example 13, 3-{2-Fluoro-4-methyl-5-[(2,2,2-trifluoroethyl)sulfinyl]phenyl}-2-[(2,2,2-trifluoroethyl)imino]-1,3-thiazolidin-4-one] | 90% | 90% | 100% | – | – | – | – |
| 2.59 | 2.58 | Cc1ccc(-n2c(=O)n(C)c(=O)n2C)cc1SCC(F)(F)F [Example 20, 1,4-Dimethyl-2-{4-methyl-3-[(2,2,2-trifluoroethyl)sulfanyl]phenyl}-1,2,4-triazolidine-3,5-dione] | 100% | 90% | – | – | – | – | – |
| – | – | Cn1c(=O)n(C)n(-c2cc([S+]([O-])CC(F)(F)F)c(Cl)cc2F)c1=O (centres unmarked) [Example 29] | – | 90% | – | 90% | 1.93 | 1.91 | – |
| – | – | Cn1c(=O)n(C)n(-c2cc(SCC(F)(F)F)c(Cl)cc2F)c1=O [Example 30] | – | 90% | – | 100% | 2.71 | 2.67 | – |
| – | – | Cc1cc(C)c([S+]([O-])CC(F)(F)F)cc1-n1c(=O)n(C)c(=O)n1C (centres unmarked) [Example 33] | – | 90% | – | 90% | 1.75 | 1.70 | – |
| – | – | Cc1ccc(-n2c(=O)n(C3CC3)c(=O)n2C)cc1SCC(F)(F)F [Example 36] | – | 100% | – | 100% | 2.89 | 2.87 | – |
| – | – | Cn1c(=O)n(C2CC2)c(=O)n1-c1cc([S+]([O-])CC(F)(F)F)c(Cl)cc1F (centres unmarked) [Example 38] | – | 100% | – | 100% | 2.18 | 2.16 | – |
| – | – | COc1ccc(-n2c(=O)n(C3CC3)c(=O)n2C)cc1[S+]([O-])CC(F)(F)F (centres unmarked) [Example 41] | – | 90% | – | 90% | 1.77 | 1.75 | – |
| – | – | COc1ccc(-n2c(=O)n(C3CC3)c(=O)n2C)cc1SCC(F)(F)F [Example 42] | – | 90% | – | 100% | 2.51 | 2.46 | – |
| – | – | Cn1c(=O)n(C2CC2)c(=O)n1-c1ccc(C#N)c(SCC(F)(F)F)c1 [Example 44] | – | 90% | – | – | 2.53 | 2.45 | – |
| – | – | Cn1c(=O)n(C2CC2)c(=O)n1-c1ccc(Br)c([S+]([O-])CC(F)(F)F)c1 (centres unmarked) [Example 45] | – | 90% | – | – | 2.27 | 2.24 | – |
| – | – | Cc1cc(C)c([S+]([O-])CC(F)(F)F)cc1-n1c(=O)n(C2CC2)c(=O)n1C (centres unmarked) [Example 47] | – | – | 100% | 90% | 1.98 | 1.93 | – |
| – | – | C=CCn1c(=O)n(C2CC2)c(=O)n1-c1ccc(C)c(SCC(F)(F)F)c1 [Example 48] | – | – | 80% | 100% | 3.37 | 3.31 | – |
| – | – | Cn1c(=O)n(C)n(-c2cc([S+]([O-])CC(F)(F)F)c(Br)cc2F)c1=O (centres unmarked) [Example 69] | – | 90% | – | – | 2.01 | 1.98 | – |
| – | – | Cn1c(=O)n(C)n(-c2cc([S+]([O-])CC(F)(F)F)c(F)cc2F)c1=O (centres unmarked) [Example 70] | – | 90% | – | – | 1.64 | 1.59 | – |
| – | – | CCn1c(=O)n(C)n(-c2cc([S+]([O-])CC(F)(F)F)c(C)cc2F)c1=O (centres unmarked) [Example 74] | – | 90% | – | – | 1.93 | 1.91 | 90% |
| – | – | C=CCn1c(=O)n(C)n(-c2cc([S+]([O-])CC(F)(F)F)c(C)cc2F)c1=O (centres unmarked) [Example 80] | – | 90% | – | 100% | 2.07 | 2.03 | – |
| – | – | C=CCn1c(=O)n(C)n(-c2cc(SCC(F)(F)F)c(C)cc2F)c1=O [Example 81] | – | 90% | – | – | 3.05 | 3.01 | 100% |
| – | – | CCn1c(=O)n(C)n(-c2cc(SCC(F)(F)F)c(C)cc2F)c1=O [Example 83] | – | 100% | – | 100% | 2.92 | 2.88 | – |
| 2.66 | – | Cc1cc(F)c(N2CCOC2=O)cc1SCC(F)(F)F [Example 104, 3-[2-Fluoro-4-methyl-5-(2,2,2-trifluoroethylsulfanyl)phenyl]oxazolidin-2-one] | 100% | – | 100% | – | – | – | – |
| – | – | Cc1cc(F)c(N2C(=O)CSC2=NCC(C)C)cc1SCC(F)(F)F [Example 115] | – | – | 100% | 100% | 4.33 | 4.31 | – |
| – | – | CCn1c(=O)n(C2CC2)c(=O)n1-c1cc(SCC(F)(F)F)c(C)cc1F [Example 127] | – | 90% | – | 100% | 3.19 | 3.17 | – |
| 1.89 | 1.85 | Cc1cc(F)c(N2C(=O)C(C)(C)C(=O)N2C)cc1[S+]([O-])CC(F)(F)F (centres unmarked) [Example 177, 1-{2-Fluoro-4-methyl-5-[(2,2,2-trifluoroethyl)sulfinyl]phenyl}-2,4,4-trimethylpyrazolidine-3,5-dione] | 90% | 90% | – | – | – | – | – |
| – | – | Cc1cc(F)c(N2C(=O)C3(CCC3)C(=O)N2C)cc1SCC(F)(F)F [Example 179] | – | 90% | – | 100% | 3.00 | 2.96 | – |
| 3.44 | 3.39 | Cc1cc(F)c(-n2c(=O)n(C3CC3)c(=S)n2C)cc1SCC(F)(F)F [Example 181, 4-Cyclopropyl-2-{2-fluoro-4-methyl-5-[(2,2,2-trifluoroethyl)sulfanyl]phenyl}-1-methyl-5-thioxo-1,2,4-triazolidin-3-one] | 90% | 90% | – | – | – | – | – |
| 3.83 | 3.76 | Cc1cc(F)c(-n2c(=S)n(C3CC3)c(=S)n2C)cc1SCC(F)(F)F [Example 182, 4-cyclopropyl-1-{2-fluoro-4-methyl-5-[(2,2,2-trifluoroethyl)sulfanyl]phenyl}-2-methyl-1,2,4-triazolidine-3,5-dithione] | – | 90% | – | – | – | – | – |
| 3.11 | – | Cc1cc(F)c(N2C(=O)N(C)C(=O)C2(C)C)cc1SCC(F)(F)F [Example 217, 1-[2-Fluoro-4-methyl-5-(2,2,2-trifluoroethylsulfanyl)phenyl]-3,5,5-trimethylimidazolidine-2,4-dione] | 90% | – | – | – | – | – | – |
